From article PMC11951083, “Highly Specific Miniaturized Fluorescent Monoacylglycerol Lipase Probes Enable Translational Research” (Journal of the American Chemical Society, 2025)
In brackets after ≈: the same amount, converted by molar mass. Read-outs that look alike come from different tables or passages of the source.

Experiments:
[1] = tested on: serine hydrolases in the mouse brain proteome (MBP); test: Multiplex ABPP in mouse brain proteome; format: biochemical; details: for labeling selectivity in ABPP (covalent probes): mouse brain homogenates, broad range of concentrations; for selectivity in competitive ABPP (reversible probes): mouse brain proteome, membrane and cytosolic fraction, 1 μM
Experimental: K = [L][P] = 0.5 [L]T (FP50 − 0.5 [L]T) = FP − 0.5 [L] […]
Mouse brain sample preparation
Mouse tissues were isolated according to guidelines approved by the ethical committee of Leiden University. Male mouse brain (27 weeks old) was homogenized with glass beads (2x 1 min, bullet blender, speed 8) using cold lysis buffer (20 mM Hepes pH 7.2, 1 mM MgCl 2, 2 U/mL Benzonase). The membrane and cytosol were separated by centrifugation. The membrane fraction was resuspended in Hepes/DTT buffer. Protein concentration was determined with Bradford Assay, and samples were diluted to a final concentration of 2.0 mg/mL. Samples were snap -frozen in liquid nitrogen and stored at -80 °C until further use.
Lysate (19 µL, 2 µg/µL) was thawed on ice. For comparative ABPP (irreversible probes), 1 µL of probe (20x stock in DMSO) or pure DMSO was added to the sample, vortexed briefly, and in cubated for 30 minutes at RT. For competitive ABPP (reversible probes), 0.5 µL of the reversible probe (40x stock in DMSO) or pure DMSO (as vehicle) was added to the sample, vortexed briefly, and incubated for 30 […]
minutes at RT. Subsequently, 0.5 µL MB064 (40x stock in DMSO) was added to the proteome sample, vortexed briefly, and incubated for 10 minutes at RT, after which 0.5 µL FP-Bodipy-FL (40x stock in DMSO) was added, vortexed briefly and incubated for 10 minutes at RT. The final volume was 20 - 20.5 µL (5 - 7.5% DMSO). The reaction was quenched by the addition of 7.5 µL of 4*Laemmli-buffer (final concentrations: 60 mM Tris (pH 6.8), 2% (w/v) SDS, 10% (v/v) glycerol, 1.25% (v/v) β-mercaptoethanol, 0.01% (v/v) bromophenol blue). 10 µL (14 µg protein) of the quenched reaction mixture was resolved on 10% acrylamide SDS-PAGE (180 V, 75 min). Fluorescence was measured using a Biorad ChemiDoc MP system (fluorescence channels Cy2, Cy3, Cy5). Gels were then stained using coomassie staining and imaged for protein loading control. Labeling of the respective proteins via MB064 and FP-BODIPY was visualized in two separate channels. […]
Activity based protein profiling (ABPP)
PBMCs were thawed, washed with 1 x PBS and equal amounts of cells were exposed to DMSO (D2650; Sigma-Aldrich) or MAGL inhibitor PF (PF-06795071) in DMSO for 30 min at room temperature with concentrations ranging from 1 nM to 1000 nM. Cells were washed with 1 x PBS and lysed in ice -cold lysis buffer (ab156035; Abcam), lysates were centrifuged at 14,000 x g for 15 minutes at 4°C and supernatants were collected. For ABPP experiments, cell lysates containing equal amounts of protein were incubated with the appropriate concentration of activity -based probe for 30 min at room temperature. The reaction was quenched for 30 min by adding SDS -PAGE loading buffer (NP0007, Thermo). Samples were then separated by SDS-PAGE and bands were detected ChemiDoc Imager (Bio-Rad Laboratories). Following detection, gels were stained with SimplyBlue™ SafeStain (LC6060, Thermo) for 1 hour with gentle agitation and excess stain was removed by destaining in ddH2O for 1 h with gentle agitation. Gels were imaged and protein bands were quantified using Image Lab software (Bio-Rad Laboratories).

cMAGL = target: T1, cMAGL (Macaca fascicularis, UniProt A0A2K5V664); test: Native MS (RapidFire) 2-AG substrate assay, purified cynomolgus monkey MAGL; format: biochemical
T1 sequence (A0A2K5V664 11-297): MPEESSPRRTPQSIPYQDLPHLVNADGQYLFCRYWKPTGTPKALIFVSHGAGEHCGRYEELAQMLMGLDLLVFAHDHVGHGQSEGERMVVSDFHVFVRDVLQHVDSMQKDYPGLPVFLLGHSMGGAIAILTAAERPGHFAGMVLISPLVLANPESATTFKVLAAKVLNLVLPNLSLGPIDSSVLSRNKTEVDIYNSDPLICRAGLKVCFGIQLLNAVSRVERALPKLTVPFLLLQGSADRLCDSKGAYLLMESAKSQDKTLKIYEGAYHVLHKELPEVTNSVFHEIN
Experimental: (§1) In vitro MAGL Inhibition Assay
(§2) Compounds were profiled for MAGL inhibitory activity by determining the enzymatic activity by following the hydrolysis of the natural substrate 2-arachidonoylglycerol (2-AG), resulting in arachidonic acid, which can be followed by mass spectrometry. The 2-AG assay was carried out in 384 well assay plates (PP, Greiner Cat# 784201) in a total volume of 20 µL. Compound dilutions were made in 100% DMSO (VWR Chemicals 23500.297) in a polypropylene plate in 3-fold dilution steps to give a final concentration range in the assay from 12.5 µM to 0.8 pM. 0.25µL compound dilutions (100% DMSO) were added to 9 µL MAGL in assay buffer (50 mM TRIS (GIBCO, 15567-027), 1 mM EDTA (Fluka, 03690-100 mL), 0.01% (v/v) Tween. After shaking, the plate was incubated for 15 min at RT. To start the reaction, 10 µL 2-arachidonoylglycerol in assay buffer was added. The final concentrations in the assay were 50 pM MAGL and 8 µM 2-arachidonoylglyerol. After shaking and 30 min incubation at RT, the reaction was quenched by the addition of 40µL of ACN containing 4µM of d8-arachidonic acid. The amount of arachidonic acid was traced by an online SPE system (Agilent Rapidfire) coupled to a triple quadrupole mass spectrometer (Agilent 6460). A C18 SPE cartridge (G9205A) was used in an ACN/water liquid setup. The mass spectrometer was operated in negative electrospray mode following the mass transitions 303.1 → 259.1 for arachidonic acid and 311.1 → 267.0 for d8-arachidonic acid. The activity of the compounds was calculated based on the ratio of intensities [arachidonic acid / d8-arachidonic acid]. The lowest IC50 value that can be determined with high accuracy is approximately 0.025 nM.

MAGL = target: T2, MAGL (Homo sapiens, UniProt Q99685); test: Native MS (RapidFire) 2-AG substrate assay, purified human MAGL; format: biochemical; details: purified human MAGL, native MS substrate assay; IC50 of covalent inhibitors time-dependent; read-out: IC50 hMAGL
T2 sequence (Q99685 1-303): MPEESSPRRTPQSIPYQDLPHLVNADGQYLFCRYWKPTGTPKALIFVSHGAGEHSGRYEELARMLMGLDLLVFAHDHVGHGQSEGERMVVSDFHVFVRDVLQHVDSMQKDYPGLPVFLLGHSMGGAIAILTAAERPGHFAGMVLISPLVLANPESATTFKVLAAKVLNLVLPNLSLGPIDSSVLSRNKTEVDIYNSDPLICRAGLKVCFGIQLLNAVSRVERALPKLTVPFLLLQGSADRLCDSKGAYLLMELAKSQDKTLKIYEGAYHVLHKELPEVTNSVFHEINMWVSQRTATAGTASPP
Experimental: as §1, §2

[2] = High throughput kinetic solubility measurement; format: physicochemical; details: phosphate buffer, pH 6.5, aqueous buffer, kinetic from dmso stock
[3] = purified cynomolgus monkey MAGL, native MS substrate assay, read-out: IC50 cMAGL

O=C(OC(C(F)(F)F)C(F)(F)F)N1CC2(CC(CC3=C4C=CC(c5ccc[nH]5)=[N+]4[B-](F)(F)n4cccc43)C2)C1 [Compound 2a]
labeling selectivity in ABPP (covalent probes) [1]: only selective irreversible labeling of the two MAGL isoforms
IC50 (cMAGL; [3]): 0.63 nM
IC50 (MAGL): 0.98 nM
solubility kinetic [2]: < 1 µg/mL

O=C1CO[C@H]2CCN(C(=O)N3CC4(CC(CC5=C6C=CC(c7ccc[nH]7)=[N+]6[B-](F)(F)n6cccc65)C4)C3)C[C@H]2N1 [Compound 4a]
selectivity in competitive ABPP (reversible probes) [1]: no other potential off-target detectable
IC50 (cMAGL): 0.2 nM
IC50 (MAGL): 0.14 nM
solubility kinetic [2]: < 0.3 µg/mL

O=C(O[C@H](CO)C(F)(F)F)N1CC2(CC(CC3=C4C=CC=[N+]4[B-](F)(F)n4cccc43)C2)C1 [Compound 1]
labeling selectivity in ABPP (covalent probes) [1]: only selective irreversible labeling of the two MAGL isoforms
IC50 (cMAGL; [3]): 0.87 nM
IC50 (MAGL): 0.28 nM
solubility kinetic [2]: 19 µg/mL (≈ 41.6 µM)

O=C(OC(C(F)(F)F)C(F)(F)F)N1CC2(CC(CC3=C4C=CC=[N+]4[B-](F)(F)n4cccc43)C2)C1 [Compound 2]
labeling selectivity in ABPP (covalent probes) [1]: only selective irreversible labeling of the two MAGL isoforms
IC50 (cMAGL; [3]): 0.24 nM
IC50 (MAGL): 0.39 nM
solubility kinetic [2]: < 3 µg/mL

O=C1CO[C@H]2CCN(C(=O)N3CC4(CC(CC5=C6C=CC=[N+]6[B-](F)(F)n6cccc65)C4)C3)C[C@H]2N1 [Compound 4]
selectivity in competitive ABPP (reversible probes) [1]: no other potential off-target detectable
IC50 (cMAGL; [3]): 1.14 nM
IC50 (MAGL): 0.94 nM
solubility kinetic [2]: 112 µg/mL (≈ 232 µM)

O=C(N1CC2(CC(CC3=C4C=CC=[N+]4[B-](F)(F)n4cccc43)C2)C1)N1CC2(CC(n3cnc(C4CC4)n3)C2)C1 [Compound 5]
selectivity in competitive ABPP (reversible probes) [1]: no other potential off-target detectable
IC50 (cMAGL): 0.5 nM
IC50 (MAGL): 0.58 nM
solubility kinetic [2]: 46 µg/mL (≈ 86.6 µM)
